Measurements: patent US10906873B2, “Substituted cyclic amides as herbicides” (FMC Corporation, priority 2015, dated 2021)

Key:
Format in all cases: in vivo
[1] = test system: barnyardgrass (Echinochloa crus-galli); assay: Test A preemergence, barnyardgrass; conditions: 0 to 100 scale
Procedure, shortened: (§1)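 Visual injury ratings, 0 = no effect to 100 = complete control, made versus untreated controls after about 10 d in greenhouse. Chemicals formulated in solvent mixture containing surfactant were sprayed on loam-sand soil after seeding (preemergence) or onto plants at one- to two-leaf stage, 2-10 cm (postemergence).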

kochia (Kochia scoparia) [2] = assay: Test A preemergence, kochia; conditions: 0 to 100 scale
Procedure, shortened: as §1

[3] = test system: ragweed (common ragweed, Ambrosia elatior); assay: Test A preemergence, ragweed; conditions: 0 to 100 scale
Procedure, shortened: as §1

[4] = test system: ryegrass, It. (Italian ryegrass, Lolium multiflorum); assay: Test A preemergence, ryegrass, It.; conditions: 0 to 100 scale
Procedure, shortened: as §1

[5] = test system: foxtail, giant (giant foxtail, Setaria faberii); assay: Test A preemergence, foxtail, giant; conditions: 0 to 100 scale
Procedure, shortened: as §1

[6] = test system: pigweed (Amaranthus retroflexus); assay: Test A preemergence, pigweed; conditions: 0 to 100 scale
Procedure, shortened: as §1

[7] = test system: barnyardgrass (Echinochloa crus-galli); assay: Test A postemergence, barnyardgrass; conditions: 0 to 100 scale
Procedure, shortened: as §1

kochia (Kochia scoparia) [8] = assay: Test A postemergence, kochia; conditions: 0 to 100 scale
Procedure, shortened: as §1

[9] = test system: ragweed (common ragweed, Ambrosia elatior); assay: Test A postemergence, ragweed; conditions: 0 to 100 scale
Procedure, shortened: as §1

[10] = test system: ryegrass, It. (Italian ryegrass, Lolium multiflorum); assay: Test A postemergence, ryegrass, It.; conditions: 0 to 100 scale
Procedure, shortened: as §1

[11] = test system: foxtail, giant (giant foxtail, Setaria faberii); assay: Test A postemergence, foxtail, giant; conditions: 0 to 100 scale
Procedure, shortened: as §1

[12] = test system: wheat (Triticum aestivum); assay: Test A postemergence, wheat; conditions: 0 to 100 scale
Procedure, shortened: as §1

corn (Zea mays) = assay: Test A postemergence, corn; conditions: 0 to 100 scale
Procedure, shortened: as §1

[13] = test system: pigweed (Amaranthus retroflexus); assay: Test A postemergence, pigweed; conditions: 0 to 100 scale
Procedure, shortened: as §1

[14] = test system: blackgrass (Alopecurus myosuroides); assay: Test A postemergence, blackgrass; conditions: 0 to 100 scale
Procedure, shortened: as §1

[15] = test system: galium (catchweed bedstraw, Galium aparine); assay: Test A postemergence, galium; conditions: 0 to 100 scale
Procedure, shortened: as §1

[16] = test system: barnyardgrass (Echinochloa crus-galli); assay: Test B flooded paddy test, barnyardgrass; conditions: Flood, scale of 0 to 100 where 0 is no effect and 100 is complete control, 13 to 15 d
Procedure, shortened: (§2)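 Ratings use a 0-100 visual scale, where 100 is complete control, and compare treated plants with controls after 13 to 15 d of greenhouse growth. Compound went straight into paddy water kept 3 cm over the soil surface, applied to seedlings at the 2-leaf stage.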

[17] = test system: ducksalad (Heteranthera limosa); assay: Test B flooded paddy test, ducksalad; conditions: Flood, scale of 0 to 100 where 0 is no effect and 100 is complete control, 13 to 15 d
Procedure, shortened: as §2

rice (Oryza sativa) = assay: Test B flooded paddy test, rice; conditions: Flood, scale of 0 to 100 where 0 is no effect and 100 is complete control, 13 to 15 d
Procedure, shortened: as §2

[18] = test system: sedge, umbrella (small-flower umbrella sedge, Cyperus difformis); assay: Test B flooded paddy test, sedge, umbrella; conditions: Flood, scale of 0 to 100 where 0 is no effect and 100 is complete control, 13 to 15 d
Procedure, shortened: as §2

O=C1NCC(Cc2ccccc2C(F)(F)F)C1C(=O)Nc1cccc(F)c1F (stereo not drawn) [Compound 9]
60: Plant response rating, Barnyardgrass ([7]; 500 g ai/ha)
50: Plant response rating, Barnyardgrass ([1]; 500 g ai/ha) | Plant response rating, Kochia (kochia (Kochia scoparia) [2]; 500 g ai/ha) | Plant response rating, Foxtail, Giant ([5]; 500 g ai/ha)
10: Plant response rating, Barnyardgrass ([7]; 125 g ai/ha)
30: Plant response rating, Ragweed ([3]; 500 g ai/ha) | Plant response rating, Kochia (kochia (Kochia scoparia) [8]; 500 g ai/ha)
40: Plant response rating, Ducksalad ([17]; 500 g ai/ha)
0: Plant response rating, Barnyardgrass ([1]; 125 g ai/ha) | Plant response rating, Kochia (kochia (Kochia scoparia) [2]; 125 g ai/ha) | Plant response rating, Ragweed ([3]; 125 g ai/ha) | Plant response rating, Ryegrass, It. ([4]; 125 g ai/ha) | Plant response rating, Ryegrass, It. ([4]; 500 g ai/ha) | Plant response rating, Foxtail, Giant ([5]; 125 g ai/ha) | Plant response rating, Pigweed ([6]; 125 g ai/ha) | Plant response rating, Pigweed ([6]; 500 g ai/ha) | Plant response rating, Kochia (kochia (Kochia scoparia) [8]; 125 g ai/ha) | Plant response rating, Ragweed ([9]; 125 g ai/ha) | Plant response rating, Ragweed ([9]; 500 g ai/ha) | Plant response rating, Ryegrass, It. ([10]; 125 g ai/ha) | Plant response rating, Ryegrass, It. ([10]; 500 g ai/ha) | Plant response rating, Foxtail, Giant ([11]; 125 g ai/ha) | Plant response rating, Foxtail, Giant ([11]; 500 g ai/ha) | Plant response rating, Wheat ([12]; 125 g ai/ha) | Plant response rating, Wheat ([12]; 500 g ai/ha) | Plant response rating, Corn (corn (Zea mays); 125 g ai/ha) | Plant response rating, Corn (corn (Zea mays); 500 g ai/ha) | Plant response rating, Pigweed ([13]; 125 g ai/ha) | Plant response rating, Pigweed ([13]; 500 g ai/ha) | Plant response rating, Blackgrass ([14]; 125 g ai/ha) | Plant response rating, Blackgrass ([14]; 500 g ai/ha) | Plant response rating, Galium ([15]; 125 g ai/ha) | Plant response rating, Galium ([15]; 500 g ai/ha) | Plant response rating, Barnyardgrass ([16]; 500 g ai/ha) | Plant response rating, Rice (rice (Oryza sativa); 500 g ai/ha) | Plant response rating, Sedge, Umbrella ([18]; 500 g ai/ha)

O=C1NCC(C#Cc2ccc(F)cc2)C1C(=O)Nc1ccccc1F (stereo not drawn) [Compound 19]
40: Plant response rating, Barnyardgrass ([7]; 500 g ai/ha)
50: Plant response rating, Barnyardgrass ([1]; 500 g ai/ha)
20: Plant response rating, Foxtail, Giant ([5]; 500 g ai/ha) | Plant response rating, Foxtail, Giant ([11]; 500 g ai/ha)
0: Plant response rating, Barnyardgrass ([1]; 125 g ai/ha) | Plant response rating, Kochia (kochia (Kochia scoparia) [2]; 125 g ai/ha) | Plant response rating, Kochia (kochia (Kochia scoparia) [2]; 500 g ai/ha) | Plant response rating, Ragweed ([3]; 125 g ai/ha) | Plant response rating, Ragweed ([3]; 500 g ai/ha) | Plant response rating, Ryegrass, It. ([4]; 125 g ai/ha) | Plant response rating, Ryegrass, It. ([4]; 500 g ai/ha) | Plant response rating, Foxtail, Giant ([5]; 125 g ai/ha) | Plant response rating, Pigweed ([6]; 125 g ai/ha) | Plant response rating, Pigweed ([6]; 500 g ai/ha) | Plant response rating, Barnyardgrass ([7]; 125 g ai/ha) | Plant response rating, Kochia (kochia (Kochia scoparia) [8]; 125 g ai/ha) | Plant response rating, Kochia (kochia (Kochia scoparia) [8]; 500 g ai/ha) | Plant response rating, Ragweed ([9]; 125 g ai/ha) | Plant response rating, Ragweed ([9]; 500 g ai/ha) | Plant response rating, Ryegrass, It. ([10]; 125 g ai/ha) | Plant response rating, Ryegrass, It. ([10]; 500 g ai/ha) | Plant response rating, Foxtail, Giant ([11]; 125 g ai/ha) | Plant response rating, Wheat ([12]; 125 g ai/ha) | Plant response rating, Wheat ([12]; 500 g ai/ha) | Plant response rating, Corn (corn (Zea mays); 125 g ai/ha) | Plant response rating, Corn (corn (Zea mays); 500 g ai/ha) | Plant response rating, Pigweed ([13]; 125 g ai/ha) | Plant response rating, Pigweed ([13]; 500 g ai/ha) | Plant response rating, Blackgrass ([14]; 125 g ai/ha) | Plant response rating, Blackgrass ([14]; 500 g ai/ha) | Plant response rating, Galium ([15]; 125 g ai/ha) | Plant response rating, Galium ([15]; 500 g ai/ha) | Plant response rating, Barnyardgrass ([16]; 250 g ai/ha) | Plant response rating, Ducksalad ([17]; 250 g ai/ha) | Plant response rating, Rice (rice (Oryza sativa); 250 g ai/ha) | Plant response rating, Sedge, Umbrella ([18]; 250 g ai/ha)

O=C1NCC(Cc2ccc(C(F)(F)F)cc2)C1C(=O)Nc1cccc(F)c1F (stereo not drawn) [Compound 7]
0: Plant response rating, Barnyardgrass ([1]; 125 g ai/ha) | Plant response rating, Kochia (kochia (Kochia scoparia) [2]; 125 g ai/ha) | Plant response rating, Kochia (kochia (Kochia scoparia) [2]; 500 g ai/ha) | Plant response rating, Ragweed ([3]; 125 g ai/ha) | Plant response rating, Ragweed ([3]; 500 g ai/ha) | Plant response rating, Ryegrass, It. ([4]; 125 g ai/ha) | Plant response rating, Ryegrass, It. ([4]; 500 g ai/ha) | Plant response rating, Foxtail, Giant ([5]; 125 g ai/ha) | Plant response rating, Pigweed ([6]; 125 g ai/ha) | Plant response rating, Pigweed ([6]; 500 g ai/ha) | Plant response rating, Barnyardgrass ([7]; 125 g ai/ha) | Plant response rating, Kochia (kochia (Kochia scoparia) [8]; 125 g ai/ha) | Plant response rating, Kochia (kochia (Kochia scoparia) [8]; 500 g ai/ha) | Plant response rating, Ragweed ([9]; 125 g ai/ha) | Plant response rating, Ragweed ([9]; 500 g ai/ha) | Plant response rating, Ryegrass, It. ([10]; 125 g ai/ha) | Plant response rating, Ryegrass, It. ([10]; 500 g ai/ha) | Plant response rating, Foxtail, Giant ([11]; 125 g ai/ha) | Plant response rating, Wheat ([12]; 125 g ai/ha) | Plant response rating, Wheat ([12]; 500 g ai/ha) | Plant response rating, Corn (corn (Zea mays); 125 g ai/ha) | Plant response rating, Corn (corn (Zea mays); 500 g ai/ha) | Plant response rating, Pigweed ([13]; 125 g ai/ha) | Plant response rating, Pigweed ([13]; 500 g ai/ha) | Plant response rating, Blackgrass ([14]; 125 g ai/ha) | Plant response rating, Blackgrass ([14]; 500 g ai/ha) | Plant response rating, Galium ([15]; 125 g ai/ha) | Plant response rating, Galium ([15]; 500 g ai/ha) | Plant response rating, Rice (rice (Oryza sativa); 500 g ai/ha) | Plant response rating, Sedge, Umbrella ([18]; 500 g ai/ha)
20: Plant response rating, Foxtail, Giant ([11]; 500 g ai/ha)
30: Plant response rating, Foxtail, Giant ([5]; 500 g ai/ha)
75: Plant response rating, Ducksalad ([17]; 500 g ai/ha)
25: Plant response rating, Barnyardgrass ([16]; 500 g ai/ha)
40: Plant response rating, Barnyardgrass ([1]; 500 g ai/ha)
60: Plant response rating, Barnyardgrass ([7]; 500 g ai/ha)

O=C(CCC1CNC(=O)C1C(=O)Nc1ccccc1F)Nc1ccc(F)cc1 (stereo not drawn) [Compound 15]
0: Plant response rating, Barnyardgrass ([1]; 125 g ai/ha) | Plant response rating, Barnyardgrass ([1]; 500 g ai/ha) | Plant response rating, Kochia (kochia (Kochia scoparia) [2]; 125 g ai/ha) | Plant response rating, Kochia (kochia (Kochia scoparia) [2]; 500 g ai/ha) | Plant response rating, Ragweed ([3]; 125 g ai/ha) | Plant response rating, Ragweed ([3]; 500 g ai/ha) | Plant response rating, Ryegrass, It. ([4]; 125 g ai/ha) | Plant response rating, Ryegrass, It. ([4]; 500 g ai/ha) | Plant response rating, Foxtail, Giant ([5]; 125 g ai/ha) | Plant response rating, Foxtail, Giant ([5]; 500 g ai/ha) | Plant response rating, Pigweed ([6]; 125 g ai/ha) | Plant response rating, Pigweed ([6]; 500 g ai/ha) | Plant response rating, Barnyardgrass ([7]; 125 g ai/ha) | Plant response rating, Barnyardgrass ([7]; 500 g ai/ha) | Plant response rating, Kochia (kochia (Kochia scoparia) [8]; 125 g ai/ha) | Plant response rating, Kochia (kochia (Kochia scoparia) [8]; 500 g ai/ha) | Plant response rating, Ragweed ([9]; 125 g ai/ha) | Plant response rating, Ragweed ([9]; 500 g ai/ha) | Plant response rating, Ryegrass, It. ([10]; 125 g ai/ha) | Plant response rating, Ryegrass, It. ([10]; 500 g ai/ha) | Plant response rating, Foxtail, Giant ([11]; 125 g ai/ha) | Plant response rating, Foxtail, Giant ([11]; 500 g ai/ha) | Plant response rating, Wheat ([12]; 125 g ai/ha) | Plant response rating, Wheat ([12]; 500 g ai/ha) | Plant response rating, Corn (corn (Zea mays); 125 g ai/ha) | Plant response rating, Corn (corn (Zea mays); 500 g ai/ha) | Plant response rating, Pigweed ([13]; 125 g ai/ha) | Plant response rating, Pigweed ([13]; 500 g ai/ha) | Plant response rating, Blackgrass ([14]; 125 g ai/ha) | Plant response rating, Blackgrass ([14]; 500 g ai/ha) | Plant response rating, Galium ([15]; 125 g ai/ha) | Plant response rating, Galium ([15]; 500 g ai/ha) | Plant response rating, Barnyardgrass ([16]; 500 g ai/ha) | Plant response rating, Rice (rice (Oryza sativa); 500 g ai/ha) | Plant response rating, Sedge, Umbrella ([18]; 500 g ai/ha)
70: Plant response rating, Ducksalad ([17]; 500 g ai/ha)
